According to patent publication US20050261349A1, “Medicine for prevention or treatment of diabetes” (priority 2004, published 2005):

System: C57BL/KsJ db/db mice
Assay: Hypoglycemic effect of single or combined oral administration in db/db mice (plasma glucose concentration)
Format: in vivo, mouse
Conditions: 14th day, 2 hours after oral administration; for Decreasing rate (of plasma glucose concentration vs control group): calculated from group means vs control group; for Plasma glucose concentration: mean±standard deviation for 6 mice, control group 519 ± 69
Method: As test animals, C57BL/KsJ db/db mice were used, which were created in Jackson Laboratory (USA) and known as an obesity, hyperlipemia, hyperinsulinemia, and insulin-resistant model (Journal of Clinical Investigation, 85, pp 962-967, 1990). Blood was collected from the orbital venous plexus of each 7-week-old db/db mouse using a heparin-treated capillary tube, and centrifugation was performed to collect plasma. Thereafter, the plasma glucose concentration (Glucose CII-Test Wako (Wako Pure Chemical Industries, Ltd.)), the insulin concentration (Lebis Insulin Kit: for mouse-T (SHIBAYAGI)), and the triglyceride concentration (Triglyceride E-Test Wako (Wako Pure Chemical Industries, Ltd.)) were measured for classification. The classification was performed so that distribution of each measurement item is uniform for each group by block allocation based on many variables in which the plasma glucose concentration is most emphasized using the measured values of the plasma glucose concentration, the body weight, the insulin concentration, and the triglyceride concentration. […] Two hours after the administration, blood was collected from the orbital venous plexus, and the plasma thereof was collected to measure the plasma glucose concentration. […] Each plasma glucose concentration is expressed as mean±standard deviation for 6 mice of each group. Each decreasing rate is calculated from ((mean of plasma glucose concentration of control group)−(mean of plasma glucose concentration of each group))/(mean of plasma glucose concentration of control group)×100, while each relative index is calculated from (mean of plasma glucose concentration of each group)/(mean of plasma glucose concentration of control group).

SMILES | Relative index (mean plasma glucose of group / mean of control group) | Decreasing rate (of plasma glucose concentration vs control group) | Decreasing rate (of plasma glucose concentration vs control group) (listed as glibenclamide) | Plasma glucose concentration | Decreasing rate (of plasma glucose concentration vs control group) (listed as sodium 2,2-dichloro-12-(4-chlorophenyl)-dodecanoate)
COc1ccc(Cl)cc1C(=O)NCCc1ccc(S(=O)(=O)NC(=O)NC2CCCCC2)cc1 [Glibenclamide] | 0.79 | 21% | 21% | 412 ± 153 mg/dL | 
O=C([O-])C(Cl)(Cl)CCCCCCCCCCc1ccc(Cl)cc1.[Na+] [sodium 2,2-dichloro-12-(4-chlorophenyl)-dodecanoate] | 0.49 | 51% |  | 253 ± 75 mg/dL | 51%
